Calls of active or inactive are those of the source.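 How the source made its calls: active means phosphatase PP5 activity blocked by at least 30% at 50 µM; inactive means the rest.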
biological target: Serine/threonine-protein phosphatase 5 (Homo sapiens) (UniProt P53041); assay: PP5 phosphatase inhibition selectivity check, late-stage follow-up, selectivity assay for PP1 inhibitor project, biochemical, radiolabel, 33P-phosphohistone substrate, powder samples (AID 652229); conditions: purified PP5c, 33P-phosphohistone dephosphorylation, scintillation; at 50 µM; stronger effect = higher value
Sequence (P53041 whole entry, looked up): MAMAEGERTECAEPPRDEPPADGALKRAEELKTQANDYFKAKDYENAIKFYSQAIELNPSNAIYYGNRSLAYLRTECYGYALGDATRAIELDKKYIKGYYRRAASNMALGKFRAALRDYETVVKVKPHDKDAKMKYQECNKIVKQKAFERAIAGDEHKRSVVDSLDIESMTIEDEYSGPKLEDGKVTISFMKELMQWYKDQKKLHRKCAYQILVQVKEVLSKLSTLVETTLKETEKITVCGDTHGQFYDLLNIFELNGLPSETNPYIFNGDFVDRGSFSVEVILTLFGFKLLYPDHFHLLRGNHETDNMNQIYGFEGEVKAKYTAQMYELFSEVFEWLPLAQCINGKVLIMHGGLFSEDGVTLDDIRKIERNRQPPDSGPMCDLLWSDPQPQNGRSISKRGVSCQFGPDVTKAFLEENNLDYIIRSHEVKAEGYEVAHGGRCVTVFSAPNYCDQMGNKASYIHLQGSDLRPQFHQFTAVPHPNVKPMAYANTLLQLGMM

inhibition | Compound
6.84% (inactive) | Oc1c(C(c2ccccn2)N2CCNCC2)cc(Cl)c2cccnc12 (configuration not stated)
-0.6% (inactive) | Oc1c(C(c2ccccn2)N2CCN(c3ccccc3F)CC2)cc(Cl)c2cccnc12 (configuration not stated)
4.23% (inactive) | Oc1c(C(c2ccccn2)N2CCC(Cc3ccccc3)CC2)cc(Cl)c2cccnc12 (configuration not stated)
3.05% (inactive) | CN1CCN(C(c2ccccn2)c2cc(Cl)c3cccnc3c2O)CC1 (configuration not stated)
3.21% (inactive) | CCN1CCN(C(c2ccccn2)c2cc(Cl)c3cccnc3c2O)CC1 (configuration not stated)
0.25% (inactive) | CC(C)(C)OC(=O)N1CCN(C(c2ccccn2)c2cc(Cl)c3cccnc3c2O)CC1 (configuration not stated)
6.08% (inactive) | CC1CCN(C(c2ccccn2)c2cc(Cl)c3cccnc3c2O)CC1 (configuration not stated)

Source: PubChem BioAssay AID652229 (The Scripps Research Institute Molecular Screening Center, 2013)
